From patent US20120178738A1, “DIBENZO [B,F] [1,4]OXAZAPINE COMPOUNDS” (ARYX THERAPEUTICS, INC., priority 2007, published 2012)
Where two headings read alike, the source gives them in different places.

Tests used:
[1] = biological target: T1, 5-HT2A receptor (Rattus norvegicus, UniProt P14842); assay: cell-based
T1 construct: Eight strips of tissue (0.5 cm long) were cut. and were mounted in 10 ml organ baths; tissue Charles River Laboratories; host or cells: rat aorta strips, endothelium removed
Outline: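 Agonist EC50 and antagonist pKB or pA2 values come from curves fitted by Parker–Waud and from EC50 concentration-ratios with versus without antagonist. Tissue: rat aorta strips, endothelium removed, 37° C Krebs pH 7.4 with 95% O2/5% CO2, 2 g tension; response as % of 5-HT maximum.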

[2] = biological target: T2, human D2s dopamine receptors (Homo sapiens, UniProt P14416); assay: hD2S receptor radioligand binding ([3H]spiperone); conditions: pKi reported on a scale of 1 through 5
T2 construct: expressed in transfected cells; host or cells: Chinese hamster ovary cells (membranes)
Outline: (§1)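 Displacement of one fixed radioligand concentration by graded test compound concentrations was measured in receptor-bearing tissue or plasma membrane fractions at equilibrium. Filtration removed displaced radioligand. Concentration-response data, after subtracting nonspecific binding measured with a reference blocker, were used to derive affinity.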

[3] = biological target: T3, human D2L dopamine receptors (Homo sapiens, UniProt P14416); assay: hD2L receptor radioligand binding ([3H]spiperone)
T3 construct: expressed in transfected cells; host or cells: insect Sf9 cells (membranes)
Procedure: (§2) Consistent with standard competition radioligand binding assays, the methodology was based on displacement of radioligand from tissues (or cell lines) bearing the receptor of interest (Cheng, Y. and Prusoff, W. H. (1973). Biochem. Pharmacol. 22, 3099-3108). The measurements were based on the binding of a single concentration of radiolabeled ligand in the presence of various concentrations of unlabeled ligand.
(§3) Tissues (or cellular plasma membrane fractions) were incubated in the presence of radioligand at equilibrium and in the presence of a range of concentrations of the test compounds (which were non-radiolabeled), and the displaced radioligand was separated from the membranes by filtration. Nonspecific binding was assessed by measuring displacement of the radioligand in the presence of a compound known to block binding of the radioligand to the receptor. Finally, the concentration-response relationship for radioligand displacement (corrected for non-specific binding) was used to assess binding of the test compound to the receptor.

[4] = biological target: T4, human 5HT1A receptors (Homo sapiens, UniProt P08908); assay: h5-HT1A receptor radioligand binding ([3H]8OH-DPAT); conditions: pKi reported on a scale of 1 through 5
T4 construct: expressed in transfected cells; host or cells: Chinese hamster ovary cells (membranes)
T4 sequence (P08908 1-422): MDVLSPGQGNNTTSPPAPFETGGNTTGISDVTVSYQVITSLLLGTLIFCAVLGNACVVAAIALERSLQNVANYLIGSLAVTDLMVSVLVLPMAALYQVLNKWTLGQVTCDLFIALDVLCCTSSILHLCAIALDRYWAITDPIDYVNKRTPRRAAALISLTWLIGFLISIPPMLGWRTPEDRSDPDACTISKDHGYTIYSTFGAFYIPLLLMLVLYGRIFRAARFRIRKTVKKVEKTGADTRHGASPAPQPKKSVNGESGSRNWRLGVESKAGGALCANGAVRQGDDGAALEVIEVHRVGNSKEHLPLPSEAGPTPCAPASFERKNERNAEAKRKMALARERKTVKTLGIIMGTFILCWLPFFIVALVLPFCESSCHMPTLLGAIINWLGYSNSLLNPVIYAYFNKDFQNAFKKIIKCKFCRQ
Outline: as §1

[5] = biological target: T5, human 5HT2C receptors (Homo sapiens, UniProt P28335); assay: h5-HT2C receptor radioligand binding ([3H]Mesulergine); conditions: pKi reported on a scale of 1 through 5
T5 construct: expressed in transfected cells; host or cells: human embryo kidney cells (membranes)
T5 sequence (P28335 33-458): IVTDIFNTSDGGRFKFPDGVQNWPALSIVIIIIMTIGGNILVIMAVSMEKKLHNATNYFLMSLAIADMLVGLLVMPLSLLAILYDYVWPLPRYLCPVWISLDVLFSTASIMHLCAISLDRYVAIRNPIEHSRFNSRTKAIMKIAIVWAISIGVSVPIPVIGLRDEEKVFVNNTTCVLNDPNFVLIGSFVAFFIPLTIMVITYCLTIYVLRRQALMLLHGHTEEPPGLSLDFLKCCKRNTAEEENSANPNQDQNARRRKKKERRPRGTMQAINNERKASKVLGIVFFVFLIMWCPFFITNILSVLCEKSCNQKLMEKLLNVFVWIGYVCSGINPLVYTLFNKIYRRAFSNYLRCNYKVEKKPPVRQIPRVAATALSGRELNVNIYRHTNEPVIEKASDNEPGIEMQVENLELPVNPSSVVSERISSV
Outline: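 Test compound affinity was derived from concentration-dependent displacement of fixed [3H]mesulergine at equilibrium, after subtracting nonspecific binding measured with a reference blocker. Bound and free radioligand were separated by filtration of tissue or plasma-membrane preparations.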

[6] = biological target: T6, human M3 receptors (Homo sapiens, UniProt P20309); assay: hM3 receptor radioligand binding ([3H]NMS)
T6 construct: expressed in transfected cells; host or cells: Chinese hamster ovary cells (membranes)
Procedure: as §2, §3

[7] = biological target: T7, human H1 receptors (Homo sapiens, UniProt P35367); assay: hH1 receptor radioligand binding ([3H]Pyrilamine); conditions: pKi reported on a scale of 1 through 5
T7 construct: expressed in transfected cells; host or cells: Chinese hamster ovary cells (membranes)
Outline: as §1

[8] = biological target: T8, human 5HT7 receptors (Homo sapiens, UniProt P34969); assay: h5-HT7 receptor radioligand binding ([3H]5-CT)
T8 construct: expressed in transfected cells; host or cells: Chinese hamster ovary cells (membranes)
Procedure: as §2, §3

[9] = biological target: T9, human M1 receptors (Homo sapiens, UniProt P11229); assay: hM1 receptor radioligand binding ([3H]NMS); conditions: pKi reported on a scale of 1 through 5
T9 construct: expressed in transfected cells; host or cells: Chinese hamster ovary cells (membranes)
T9 sequence (P11229 1-460): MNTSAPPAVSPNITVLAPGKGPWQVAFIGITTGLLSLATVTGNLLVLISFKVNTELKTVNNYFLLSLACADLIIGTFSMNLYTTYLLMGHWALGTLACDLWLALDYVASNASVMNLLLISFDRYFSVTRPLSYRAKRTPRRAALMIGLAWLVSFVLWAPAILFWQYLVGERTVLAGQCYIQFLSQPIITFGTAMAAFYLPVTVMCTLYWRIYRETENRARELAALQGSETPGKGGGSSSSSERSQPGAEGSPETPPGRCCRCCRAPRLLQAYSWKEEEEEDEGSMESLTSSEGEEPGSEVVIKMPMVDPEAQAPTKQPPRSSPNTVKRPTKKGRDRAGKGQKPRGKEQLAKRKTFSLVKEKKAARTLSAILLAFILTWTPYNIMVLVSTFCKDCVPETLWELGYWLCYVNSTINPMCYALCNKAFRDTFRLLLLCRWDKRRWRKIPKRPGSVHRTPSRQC
Outline: as §1

[10] = read-out: 5HT2A (pKb) (converted)
[11] = pKi reported on a scale of 1 through 5, read-out: D2L (pKi) (converted)
[12] = pKi reported on a scale of 1 through 5, read-out: M3 (pKi) (converted)
[13] = pKi reported on a scale of 1 through 5, read-out: 5HT7 (pKi) (converted)

T3 sequence (P14416 whole entry): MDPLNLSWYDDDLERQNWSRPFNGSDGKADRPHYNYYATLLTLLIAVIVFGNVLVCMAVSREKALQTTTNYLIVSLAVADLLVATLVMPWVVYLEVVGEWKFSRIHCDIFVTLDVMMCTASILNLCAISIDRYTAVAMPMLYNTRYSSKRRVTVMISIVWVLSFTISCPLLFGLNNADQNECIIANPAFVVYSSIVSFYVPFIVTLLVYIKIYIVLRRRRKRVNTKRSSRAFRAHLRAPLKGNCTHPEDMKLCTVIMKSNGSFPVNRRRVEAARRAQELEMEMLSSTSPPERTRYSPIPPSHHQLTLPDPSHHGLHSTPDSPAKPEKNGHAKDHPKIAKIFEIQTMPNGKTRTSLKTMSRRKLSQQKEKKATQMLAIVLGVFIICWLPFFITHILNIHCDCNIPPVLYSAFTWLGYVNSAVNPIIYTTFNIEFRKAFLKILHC
T1 sequence (P14842 whole entry): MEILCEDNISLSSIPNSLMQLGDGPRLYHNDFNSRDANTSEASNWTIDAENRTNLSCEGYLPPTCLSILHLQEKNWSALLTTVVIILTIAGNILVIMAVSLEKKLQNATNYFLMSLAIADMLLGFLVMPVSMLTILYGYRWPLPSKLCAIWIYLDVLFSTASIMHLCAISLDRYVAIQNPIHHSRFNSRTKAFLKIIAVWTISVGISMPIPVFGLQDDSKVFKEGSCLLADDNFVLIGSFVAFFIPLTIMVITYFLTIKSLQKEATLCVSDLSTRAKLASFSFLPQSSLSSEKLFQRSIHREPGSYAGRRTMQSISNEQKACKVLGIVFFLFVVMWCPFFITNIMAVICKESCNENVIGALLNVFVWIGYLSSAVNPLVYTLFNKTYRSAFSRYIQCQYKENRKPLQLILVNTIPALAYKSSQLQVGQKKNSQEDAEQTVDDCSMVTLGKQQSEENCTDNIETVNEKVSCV
T2 sequence (P14416 1-414 isoform P14416-2): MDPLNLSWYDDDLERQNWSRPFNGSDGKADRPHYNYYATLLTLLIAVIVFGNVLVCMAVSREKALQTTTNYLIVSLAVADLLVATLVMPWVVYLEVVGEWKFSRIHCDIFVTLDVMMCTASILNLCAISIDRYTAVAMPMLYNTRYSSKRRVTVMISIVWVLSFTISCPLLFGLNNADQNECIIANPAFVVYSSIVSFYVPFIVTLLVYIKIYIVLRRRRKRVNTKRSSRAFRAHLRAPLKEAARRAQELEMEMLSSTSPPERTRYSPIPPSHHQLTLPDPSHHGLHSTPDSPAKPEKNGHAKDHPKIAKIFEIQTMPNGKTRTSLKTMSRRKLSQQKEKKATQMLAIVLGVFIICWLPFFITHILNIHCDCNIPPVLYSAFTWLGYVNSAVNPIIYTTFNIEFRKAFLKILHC
T8 sequence (P34969 whole entry): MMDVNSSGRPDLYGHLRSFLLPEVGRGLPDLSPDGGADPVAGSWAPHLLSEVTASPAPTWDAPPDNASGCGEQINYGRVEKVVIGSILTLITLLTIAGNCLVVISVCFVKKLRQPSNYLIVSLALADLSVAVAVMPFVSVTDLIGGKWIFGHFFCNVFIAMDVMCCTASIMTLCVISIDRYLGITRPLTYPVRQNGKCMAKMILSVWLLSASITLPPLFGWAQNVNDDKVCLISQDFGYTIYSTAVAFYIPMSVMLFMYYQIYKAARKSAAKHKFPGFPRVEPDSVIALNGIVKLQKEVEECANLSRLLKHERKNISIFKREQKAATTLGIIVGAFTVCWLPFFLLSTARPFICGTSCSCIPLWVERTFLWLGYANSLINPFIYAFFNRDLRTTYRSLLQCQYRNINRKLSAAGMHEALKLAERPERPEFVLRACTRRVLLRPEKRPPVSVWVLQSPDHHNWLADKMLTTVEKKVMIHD
T6 sequence (P20309 whole entry): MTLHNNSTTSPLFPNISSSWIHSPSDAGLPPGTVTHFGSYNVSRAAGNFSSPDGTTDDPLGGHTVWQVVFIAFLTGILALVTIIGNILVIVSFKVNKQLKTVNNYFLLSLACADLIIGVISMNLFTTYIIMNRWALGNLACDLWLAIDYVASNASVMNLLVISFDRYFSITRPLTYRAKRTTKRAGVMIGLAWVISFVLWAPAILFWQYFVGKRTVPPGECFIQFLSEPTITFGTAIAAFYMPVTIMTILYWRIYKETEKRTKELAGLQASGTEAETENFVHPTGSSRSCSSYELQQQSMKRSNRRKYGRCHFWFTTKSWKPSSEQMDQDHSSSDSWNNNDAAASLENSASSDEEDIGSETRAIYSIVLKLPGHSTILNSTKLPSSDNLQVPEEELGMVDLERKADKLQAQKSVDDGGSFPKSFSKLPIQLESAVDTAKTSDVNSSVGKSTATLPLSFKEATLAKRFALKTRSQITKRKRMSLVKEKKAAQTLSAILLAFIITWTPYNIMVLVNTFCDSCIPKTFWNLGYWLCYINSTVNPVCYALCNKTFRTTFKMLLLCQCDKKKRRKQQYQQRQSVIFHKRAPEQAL
T7 sequence (P35367 whole entry): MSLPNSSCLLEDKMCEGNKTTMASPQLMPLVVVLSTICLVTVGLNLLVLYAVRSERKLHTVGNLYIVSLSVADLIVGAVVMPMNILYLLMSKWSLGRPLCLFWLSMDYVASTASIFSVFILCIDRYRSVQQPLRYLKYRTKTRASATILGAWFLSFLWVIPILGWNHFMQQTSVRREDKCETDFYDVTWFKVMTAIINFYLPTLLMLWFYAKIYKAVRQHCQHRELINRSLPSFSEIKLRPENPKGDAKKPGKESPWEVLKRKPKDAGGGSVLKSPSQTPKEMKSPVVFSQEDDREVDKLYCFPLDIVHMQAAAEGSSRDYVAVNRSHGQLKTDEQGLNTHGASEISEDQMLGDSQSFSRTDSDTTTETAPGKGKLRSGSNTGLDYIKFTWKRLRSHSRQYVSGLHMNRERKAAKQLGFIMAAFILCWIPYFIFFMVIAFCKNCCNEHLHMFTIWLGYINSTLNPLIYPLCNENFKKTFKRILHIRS

Structure (SMILES) | Kb [1, 10] | Ki [2] | Ki [3, 11] | Ki [4] | Ki [5] | Ki [6, 12] | Ki [7] | Ki [8, 13] | Ki [9] | Kb [1] | Ki [3] | Ki [6] | Ki [8]
CCCN(CCO)C(=O)C[C@H]1CN(C2=Nc3cc(Cl)ccc3Oc3ccccc32)CCN1 [EZ, (S,E)-2-(4-(8-chlorodibenzo[b,f][1,4]oxazepin-11-yl)piperazin-2-yl)-N-(2-hydroxyethyl)-N-propylacetamide] | 31.6 to 97.7 nM | 2510 to 9770 nM | 2510 to 9770 nM | ≤ 9.77 nM | 10 to 97.7 nM | > 10000 nM | 10 to 97.7 nM | 631 to 1550 nM | > 10000 nM |  |  |  | 
COCCCNC(=O)C[C@H]1CN(C2=Nc3cc(Cl)ccc3Oc3ccccc32)CCN1 [GD, (S,E)-2-(4-(8-chlorodibenzo[b,f][1,4]oxazepin-11-yl)piperazin-2-yl)-N-(3-methoxypropyl)acetamide] | 10 to 30.9 nM | 631 to 2450 nM | 631 to 2450 nM | 10 to 97.7 nM | 10 to 97.7 nM | > 10000 nM | 10 to 97.7 nM | 631 to 1550 nM | > 10000 nM |  |  |  | 
COC(=O)C[C@H]1CN(C2=Nc3cc(Cl)ccc3Oc3ccccc32)CCN1 [Compound N, (S,E)-methyl 2-(4-(8-chlorodibenzo[b,f][1,4]oxazepin-11-yl)piperazin-2-yl)acetate] | 3.16 to 9.77 nM | 631 to 2450 nM | 631 to 2450 nM | 100 to 977 nM | 10 to 97.7 nM | > 10000 nM | 100 to 977 nM | 631 to 1550 nM | 5010 to 9770 nM |  |  |  | 
O=C(C[C@H]1CN(C2=Nc3cc(Cl)ccc3Oc3ccccc32)CCN1)NCCO [FA, (S,E)-2-(4-(8-chlorodibenzo[b,f][1,4]oxazepin-11-yl)piperazin-2-yl)-N-(2-hydroxyethyl)acetamide] | 3.16 to 9.77 nM | 631 to 2450 nM | 631 to 2450 nM | 10 to 97.7 nM | 10 to 97.7 nM | > 10000 nM | 10 to 97.7 nM | 631 to 1550 nM | > 10000 nM |  |  |  | 
O=C(C[C@H]1CN(C2=Nc3cc(Cl)ccc3Oc3ccccc32)CCN1)NCCCO [Compound FS, (S,E)-2-(4-(8-chlorodibenzo[b,f][1,4]oxazepin-11-yl)piperazin-2-yl)-N-(3-hydroxypropyl)acetamide] | 3.16 to 9.77 nM | 631 to 2450 nM | 631 to 2450 nM | 10 to 97.7 nM | 10 to 97.7 nM | > 10000 nM | ≤ 9.77 nM | < 617 nM | > 10000 nM |  |  |  | 
C[C@@H](O)CNC(=O)C[C@H]1CN(C2=Nc3cc(Cl)ccc3Oc3ccccc32)CCN1 [FB, 2-((S)-4-((E)-8-chlorodibenzo[b,f][1,4]oxazepin-11-yl)piperazin-2-yl)-N-((R)-2-hydroxypropyl)acetamide] | < 3.09 nM | 631 to 2450 nM | 631 to 2450 nM | 10 to 97.7 nM | 10 to 97.7 nM | > 10000 nM | 10 to 97.7 nM | 631 to 1550 nM | > 10000 nM |  |  |  | 
C[C@H](CC(C)(C)O)OC(=O)C[C@H]1CN(C2=Nc3cc(Cl)ccc3Oc3ccccc32)CCN1 [Compound ED, (R)-4-hydroxy-4-methylpentan-2-yl 2-((S)-4-((E)-8-chlorodibenzo[b,f][1,4]oxazepin-11-yl)piperazin-2-yl)acetate] | 3.16 to 9.77 nM | 631 to 2450 nM | 631 to 2450 nM | 10 to 97.7 nM | < 9.77 nM | > 10000 nM | 10 to 97.7 nM | 631 to 1550 nM | 5010 to 9770 nM |  |  |  | 
COC(=O)C[C@H]1CN(C2=Nc3cc(Cl)ccc3Oc3ccccc32)CCN1C [DW, (S,E)-methyl 2-(4-(8-chlorodibenzo[b,f][1,4]oxazepin-11-yl)-1-methylpiperazin-2-yl)acetate] | 31.6 to 97.7 nM | > 10000 nM | 2510 to 9770 nM | 1000 to 9770 nM | 100 to 977 nM | > 10000 nM | 100 to 977 nM | 3980 to 9770 nM | ≤ 1230 nM |  |  |  | 
O=C(C[C@H]1CN(C2=Nc3cc(Cl)ccc3Oc3ccccc32)CCN1)NC[C@@H]1CCCO1 [FR, 2-((S)-4-((E)-8-chlorodibenzo[b,f][1,4]oxazepin-11-yl)piperazin-2-yl)-N-(((S)-tetrahydrofuran-2-yl)methyl)acetamide] | 3.16 to 9.77 nM | 158 to 617 nM | 158 to 617 nM | 10 to 97.7 nM | 10 to 97.7 nM | > 10000 nM | 10 to 97.7 nM | 631 to 1550 nM | > 10000 nM |  |  |  | 
O=C(C[C@H]1CN(C2=Nc3cc(Cl)ccc3Oc3ccccc32)CCN1)O[C@H]1CN2CCC1CC2 [DT, (R)-quinuclidin-3-yl 2-((S)-4-((E)-8-chlorodibenzo[b,f][1,4]oxazepin-11-yl)piperazin-2-yl)acetate] |  | > 10000 nM |  | 100 to 977 nM | 100 to 977 nM |  | 1000 to 9770 nM |  | 5010 to 9770 nM | > 100 nM | > 10000 nM | > 10000 nM | > 10000 nM
O=C(C[C@H]1CN(C2=Nc3cc(Cl)ccc3Oc3ccccc32)CCN1)NCCOCCO [FN, (S,E)-2-(4-(8-chlorodibenzo[b,f][1,4]oxazepin-11-yl)piperazin-2-yl)-N-(2-(2-hydroxyethoxy)ethyl)acetamide] | 3.16 to 9.77 nM | 631 to 2450 nM | 631 to 2450 nM | 10 to 97.7 nM | 10 to 97.7 nM | > 10000 nM | 10 to 97.7 nM | 631 to 1550 nM | > 10000 nM |  |  |  | 
O=C(C[C@H]1CN(C2=Nc3cc(Cl)ccc3Oc3ccccc32)CCN1)NCC(F)F [FQ, (S,E)-2-(4-(8-chlorodibenzo[b,f][1,4]oxazepin-11-yl)piperazin-2-yl)-N-(2,2-difluoroethyl)acetamide] | 10 to 30.9 nM | 631 to 2450 nM | 631 to 2450 nM | 10 to 97.7 nM | 10 to 97.7 nM | > 10000 nM | 10 to 97.7 nM | 631 to 1550 nM | 5010 to 9770 nM |  |  |  | 
CN1CCN(C2=Nc3cc(Cl)ccc3Oc3ccccc32)C[C@@H]1CC(=O)OC1CCCC1 [DX, (S,E)-cyclopentyl 2-(4-(8-chlorodibenzo[b,f][1,4]oxazepin-11-yl)-1-methylpiperazin-2-yl)acetate] | 10 to 30.9 nM | 2510 to 9770 nM | 2510 to 9770 nM | 1000 to 9770 nM | 100 to 977 nM | > 10000 nM | 100 to 977 nM | > 10000 nM | 5010 to 9770 nM |  |  |  | 
